Patent publication US8163929B2, “Dihydropyridone amides as P2X7 modulators” (Roche Palo Alto LLC, priority 2008, dated 2012)

Each molecule was assayed against T1, P2X7 (UniProt Q99572) (assay: P2X7 activity of Table 1). Settings: pIC50 values for P2X7.
T1 sequence (Q99572 1-595): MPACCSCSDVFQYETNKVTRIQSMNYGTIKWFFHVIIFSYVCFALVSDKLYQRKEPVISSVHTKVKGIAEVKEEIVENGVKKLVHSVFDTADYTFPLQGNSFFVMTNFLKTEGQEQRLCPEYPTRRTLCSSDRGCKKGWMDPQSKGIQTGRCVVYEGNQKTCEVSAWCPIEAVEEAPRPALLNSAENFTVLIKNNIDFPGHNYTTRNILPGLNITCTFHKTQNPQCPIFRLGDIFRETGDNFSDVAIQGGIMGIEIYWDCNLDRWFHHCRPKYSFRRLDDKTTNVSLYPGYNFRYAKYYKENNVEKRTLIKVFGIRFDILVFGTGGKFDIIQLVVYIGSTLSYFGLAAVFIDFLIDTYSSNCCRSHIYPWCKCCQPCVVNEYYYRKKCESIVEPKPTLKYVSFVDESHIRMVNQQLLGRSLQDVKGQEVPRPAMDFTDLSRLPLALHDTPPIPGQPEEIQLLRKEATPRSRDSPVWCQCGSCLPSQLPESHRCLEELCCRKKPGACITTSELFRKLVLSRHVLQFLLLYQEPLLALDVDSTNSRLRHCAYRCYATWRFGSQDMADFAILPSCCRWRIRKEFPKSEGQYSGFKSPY
Assay type: cell-based
Description: Stock solutions of compounds were prepared from powders as a 10 mM DMSO stock solution. These solutions were stored at RT during the two week period of these experiments to prevent freeze-thaw of the DMSO stocks. The DMSO stocks were added to the appropriate assay buffer at a concentration of 10 μM, and then diluted serially to the final concentrations that were tested. […] The aqueous solutions of compounds as well as ATP (Sigma A7699) and BzATP (Sigma B6396) were prepared fresh for each day of experiment.
1321N1 cells stably expressing the full length human P2X7 gene (1321N1-hP2X7) and HEK293 cells stably expressing the full length rat P2X7 gene (HEK293-rP2X7) were obtained from the Roche Cell Culture Facility. 1321N1-hP2X7 cells were grown in Dulbecco's Modified Eagle's Medium (DMEM) high glucose supplemented with 10% FBS and 250 μg/mL G418. HEK293-rP2X7 cells were grown in DMEM/F-12 supplemented with 10% FBS, 1 mM CaCl2, 2 mM MgCl2, 2 mM L-Glutamine and 500 μg/ml G418. Cells were split such that they never became >70% confluent.
On the day prior to the experiment, 1321N1-hP2X7 or HEK293-rP2X7 cells were released into suspension with calcium-free PBS+Versene and washed by centrifugation with calcium-free PBS to remove the Versene. Cells were resuspended in growth medium at a density of 2.5×10^5 cells/mL and seeded into black walled, clear bottom 96 well plates (50,000 cells/well) approximately 18 hr prior to intracellular calcium flux experiments.
On the day of the experiment, plates were washed with FLIPR buffer (calcium- and magnesium-free Hank's Balanced Salt Solution (HBSS) supplemented with 10 mM Hepes, 2.5 mM probenecid and 2 mM calcium chloride) using a BIO-TEK 96 channel plate washer and incubated with […] fluo-3 dye at 37° C. for one hr. The dye was then removed by plate washing and the cells were allowed to equilibrate for 20 min at room temperature with antagonist or vehicle (FLIPR buffer). Agonist (100 μM BzATP final concentration for hP2X7; 5 μM BzATP final concentration or rP2X7) was added online with the FLIPR and fluorescence measurements made at 1 sec intervals for 60 sec followed by 3 sec intervals for a further 4 min (5 min total). A final addition of 5 μM ionomycin was made and the maximal BzATP-evoked fluorescence normalized to the maximal ionomycin-evoked fluorescence.

Structure (SMILES) | pIC50
Cc1ccc(-c2ccnn2CC(C)C)cc1NC(=O)C1=CNC(=O)C[C@H]1c1ccc(F)cc1 [Compound 8, (S)-4-(4-Fluoro-phenyl)-6-oxo-1,4,5,6-tetrahydro-pyridine-3-carboxylic acid [5-(2-isobutyl-2H-pyrazol-3-yl)-2-methyl-phenyl]-amide] | 6.367
Cc1cnn(-c2cc(NC(=O)C3=CNC(=O)C[C@H]3c3ccc(F)cc3)c(C)cc2F)c(=O)c1 [Compound 143, (S)-4-(4-Fluoro-phenyl)-6-oxo-1,4,5,6-tetrahydro-pyridine-3-carboxylic acid [4-fluoro-2-methyl-5-(4-methyl-6-oxo-6H-pyridazin-1-yl)-phenyl]-amide] | 7.455
CCc1cc(-c2ccc(C)c(NC(=O)C3=CNC(=O)C[C@H]3c3ccc(F)cc3)c2)[nH]n1 [Compound 14, (S)-4-(4-Fluoro-phenyl)-6-oxo-1,4,5,6-tetrahydro-pyridine-3-carboxylic acid [5-(5-ethyl-2H-pyrazol-3-yl)-2-methyl-phenyl]-amide] | 6.913
COC[C@H](O)Cn1nccc(-c2ccc(C)c(NC(=O)C3=CN(C)C(=O)C[C@H]3c3cccc(F)c3)c2)c1=O [Compound 104, (S)-4-(3-Fluoro-phenyl)-1-methyl-6-oxo-1,4,5,6-tetrahydro-pyridine-3-carboxylic acid {5-[2-((R)-2-hydroxy-3-methoxy-propyl)-3-oxo-2,3-dihydro-pyridazin-4-yl]-2-methyl-phenyl}-amide] | 7.8
CCOC(=O)Cn1nc(-c2ccc(C)c(NC(=O)C3=CNC(=O)C[C@H]3c3ccc(F)cc3)c2)cc1C [Compound 50, [3-(3-{[(S)-4-(4-Fluoro-phenyl)-6-oxo-1,4,5,6-tetrahydro-pyridine-3-carbonyl]-amino}-4-methyl-phenyl)-5-methyl-pyrazol-1-yl]-acetic acid ethyl ester] | 7.145
Cc1cc(Cl)c(-n2ncccc2=O)cc1NC(=O)C1=CNC(=O)C[C@H]1c1ccc(F)cc1 [Compound 125, (S)-4-(4-Fluoro-phenyl)-6-oxo-1,4,5,6-tetrahydro-pyridine-3-carboxylic acid [4-chloro-2-methyl-5-(6-oxo-6H-pyridazin-1-yl)-phenyl]-amide] | 7.606
Cc1cc(-c2ccc(C)c(NC(=O)C3=CNC(=O)C[C@H]3c3ccc(F)cc3)c2)on1 [Compound 26, (S)-4-(4-Fluoro-phenyl)-6-oxo-1,4,5,6-tetrahydro-pyridine-3-carboxylic acid [2-methyl-5-(3-methyl-isoxazol-5-yl)-phenyl]-amide] | 7.265
CCn1c(=O)cnn(-c2ccc(C)c(NC(=O)C3=CN(C)C(=O)C[C@H]3c3ccc(F)cc3)c2)c1=O [Compound 131, (S)-4-(4-Fluoro-phenyl)-1-methyl-6-oxo-1,4,5,6-tetrahydro-pyridine-3-carboxylic acid [5-(4-ethyl-3,5-dioxo-4,5-dihydro-3H-[1,2,4]triazin-2-yl)-2-methyl-phenyl]-amide] | 7.42

Now from value to molecule:

pIC50 | Structure (SMILES)
8.048 | Cc1cc(-c2cc(NC(=O)C3=CNC(=O)C[C@H]3c3ccc(F)cc3)c(C)cc2F)n[nH]1 [Compound 41, (S)-4-(4-Fluoro-phenyl)-6-oxo-1,4,5,6-tetrahydro-pyridine-3-carboxylic acid [4-fluoro-2-methyl-5-(5-methyl-1H-pyrazol-3-yl)-phenyl]-amide]
7.54 | Cc1ccc(-c2c(Cl)cn[nH]c2=O)cc1NC(=O)C1=CNC(=O)C[C@H]1c1ccc(F)cc1 [Compound 55, (S)-4-(4-Fluoro-phenyl)-6-oxo-1,4,5,6-tetrahydro-pyridine-3-carboxylic acid [5-(5-chloro-3-oxo-2,3-dihydro-pyridazin-4-yl)-2-methyl-phenyl]-amide]
7.23 | Cc1ccc(-n2ncc(=O)[nH]c2=O)cc1NC(=O)C1=CNC(=O)C[C@H]1c1ccc(F)cc1 [Compound 16, (S)-4-(4-Fluoro-phenyl)-6-oxo-1,4,5,6-tetrahydro-pyridine-3-carboxylic acid [5-(3,5-dioxo-4,5-dihydro-3H-[1,2,4]triazin-2-yl)-2-methyl-phenyl]-amide]
7.145 | Cc1cn(-c2ccc(C)c(NC(=O)C3=CNC(=O)C[C@H]3c3ccc(F)cc3)c2)nn1 [Compound 28, (S)-4-(4-Fluoro-phenyl)-6-oxo-1,4,5,6-tetrahydro-pyridine-3-carboxylic acid [2-methyl-5-(4-methyl-[1,2,3]triazol-1-yl)-phenyl]-amide]
6.3 | Cc1ccc(N2CCOCC2)cc1NC(=O)C1=CNC(=O)C[C@H]1c1ccc(F)cc1 [Compound 47, (S)-4-(4-Fluoro-phenyl)-6-oxo-1,4,5,6-tetrahydro-pyridine-3-carboxylic acid (2-methyl-5-morpholin-4-yl-phenyl)-amide]
7.5 | Cc1ccc(-c2ccnn(CCO)c2=O)cc1NC(=O)C1=CN(C)C(=O)C[C@H]1c1cccc(F)c1 [Compound 93, (S)-4-(3-Fluoro-phenyl)-1-methyl-6-oxo-1,4,5,6-tetrahydro-pyridine-3-carboxylic acid {5-[2-(2-hydroxy-ethyl)-3-oxo-2,3-dihydro-pyridazin-4-yl]-2-methyl-phenyl}-amide]
7.22 | COc1ccc(-c2ccc(C)c(NC(=O)C3=CN(C)C(=O)C[C@H]3c3ccc(F)cc3)c2)nn1 [Compound 117, (S)-4-(4-Fluoro-phenyl)-1-methyl-6-oxo-1,4,5,6-tetrahydro-pyridine-3-carboxylic acid [5-(6-methoxy-pyridazin-3-yl)-2-methyl-phenyl]-amide]
6.855 | Cc1cn(-c2ccc(C)c(NC(=O)C3=CNC(=O)C[C@H]3c3ccc(F)cc3)c2)cn1 [Compound 49, (S)-4-(4-Fluoro-phenyl)-6-oxo-1,4,5,6-tetrahydro-pyridine-3-carboxylic acid [2-methyl-5-(4-methyl-imidazol-1-yl)-phenyl]-amide]
7.07 | Cc1ccc(-c2ccc(C)c(NC(=O)C3=CNC(=O)C[C@H]3c3ccc(F)cc3)c2)nc1 [Compound 6, (S)-4-(4-Fluoro-phenyl)-6-oxo-1,4,5,6-tetrahydro-pyridine-3-carboxylic acid [2-methyl-5-(5-methyl-pyridin-2-yl)-phenyl]-amide]
7.5367 | COC[C@H](O)Cn1c(=O)cnn(-c2ccc(C)c(NC(=O)C3=CN(C)C(=O)C[C@H]3c3ccc(F)cc3)c2)c1=O [Compound 77, (S)-4-(4-Fluoro-phenyl)-1-methyl-6-oxo-1,4,5,6-tetrahydro-pyridine-3-carboxylic acid {5-[4-((R)-2-hydroxy-3-methoxy-propyl)-3,5-dioxo-4,5-dihydro-3H-[1,2,4]triazin-2-yl]-2-methyl-phenyl}-amide]
5.92 | Cc1cc(-c2cc(NC(=O)C3=CNC(=O)C[C@H]3c3ccc(F)cc3)ccc2Cl)n[nH]1 [Compound 36, (S)-4-(4-Fluoro-phenyl)-6-oxo-1,4,5,6-tetrahydro-pyridine-3-carboxylic acid [4-chloro-3-(5-methyl-1H-pyrazol-3-yl)-phenyl]-amide]
7.87 | Cc1nc(-c2ccc(C)c(NC(=O)C3=CNC(=O)C[C@H]3c3ccc(F)cc3)c2)cs1 [Compound 58, (S)-4-(4-Fluoro-phenyl)-6-oxo-1,4,5,6-tetrahydro-pyridine-3-carboxylic acid [2-methyl-5-(2-methyl-thiazol-4-yl)-phenyl]-amide]
7.94 | Cc1ccc(-c2ccnn(C)c2=O)cc1NC(=O)C1=CN(C)C(=O)C[C@H]1c1ccc(F)cc1 [Compound 81, (S)-4-(4-Fluoro-phenyl)-1-methyl-6-oxo-1,4,5,6-tetrahydro-pyridine-3-carboxylic acid [2-methyl-5-(2-methyl-3-oxo-2,3-dihydro-pyridazin-4-yl)-phenyl]-amide]
